# Measured values: patent publication US12252524B2, “GIP/GLP1 co-agonist compounds” (Eli Lilly and Company, priority 2018, dated 2025)
# Numbered stars: 1 amine (or outer) side, 2 acyl side, 3 side chain; on linkers, the order of the positions; unused ones are H or OH. Square brackets hold non-standard residues; d marks the D form. Side chains are listed from the residue outwards. Peptide text beside a SMILES is read from it. * marks the point of attachment. C20 diacid = O=C(O)CCCCCCCCCCCCCCCCCCC(=O)*; γGlu = O=C(O)[C@H](CCC(=O)[*:2])N[*:1]; AEEA = NCCOCCOCC(=O)O; Aib = CC(C)(N)C(=O)O
# Columns and labels:
# [1] = target: human GLP-1 receptor (GLP-1R) (Homo sapiens, UniProt P43220); experiment: cAMP pharmacological functional assay in presence of casein, hGLP-1R; format: cell-based; conditions: HEK293 cells expressing hGLP-1R, 0.1% Casein, geometric mean; read-out: hGLP1R cAMP Rel EC50 nM (SEM, n)
# [2] = target: T1, gastric inhibitory peptide receptor (GIPR) (Homo sapiens, UniProt P48546); experiment: cAMP pharmacological functional assay in presence of casein, hGIPR; format: cell-based; conditions: HEK293 cells expressing hGIPR, 0.1% Casein, geometric mean; read-out: hGIPR cAMP Rel EC50 nM (SEM, n)
# T1 sequence (P48546 22-466): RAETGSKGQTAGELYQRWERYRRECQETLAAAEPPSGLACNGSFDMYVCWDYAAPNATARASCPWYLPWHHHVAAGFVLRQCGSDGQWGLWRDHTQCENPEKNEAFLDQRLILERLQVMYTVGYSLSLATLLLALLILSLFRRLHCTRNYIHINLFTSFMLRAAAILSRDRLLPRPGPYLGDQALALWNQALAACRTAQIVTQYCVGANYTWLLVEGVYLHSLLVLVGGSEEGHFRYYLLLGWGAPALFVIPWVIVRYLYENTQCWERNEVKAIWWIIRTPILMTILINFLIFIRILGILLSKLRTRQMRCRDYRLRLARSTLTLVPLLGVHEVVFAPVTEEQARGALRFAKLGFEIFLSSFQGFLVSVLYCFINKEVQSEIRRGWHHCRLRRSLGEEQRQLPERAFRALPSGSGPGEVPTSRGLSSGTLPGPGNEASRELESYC
# human GIP receptor = target: T2, human GIP receptor (Homo sapiens, UniProt P48546); experiment: [125I]-GIP binding (SPA), human GIP receptor; conditions: read-out: hGIPR Ki, nM (SEM, n)
# T2 construct: expressed in transfected cells; crude membranes
# T2 sequence (P48546 22-466): T1 sequence (P48546 22-466)
# Experimental: (§1) Two methods are used for the preparation of crude cell membranes.
# (§2) Method 1: Frozen cell pellets are lysed on ice in hypotonic buffer containing 50 mM Tris HCl, pH 7.5, and Roche Complete™ Protease Inhibitors with EDTA. The cell suspension is disrupted using a glass Potter-Elvehjem homogenizer fitted with a Teflon® pestle for 25 strokes. The homogenate is centrifuged at 4° C. at 1100×g for 10 minutes. The supernatant is collected and stored on ice while the pellets are resuspended in homogenization buffer and rehomogenized as described above. The homogenate is centrifuged at 1100×g for 10 minutes. The second supernatant is combined with the first supernatant and centrifuged at 35000×g for 1 hour at 4° C. The resulting membrane pellet is resuspended in homogenization buffer containing protease inhibitors at approximately 1 to 3 mg/mL, quick frozen in liquid nitrogen and stored as aliquots in a−80° C. freezer until use.
# (§3) Method 2: Frozen cell pellets are lysed on ice in hypotonic buffer containing 50 mM Tris HCl, pH 7.5, 1 mM MgCl2, Roche Complete™ EDTA-free Protease Inhibitors and 25 units/ml DNAse I (Invitrogen). The cell suspension is disrupted using a glass Potter-Elvehjem homogenizer fitted with a Teflon® pestle for 20 to 25 strokes. The homogenate is centrifuged at 4° C. at 1800×g for 15 minutes. The supernatant is collected and stored on ice while the pellets are resuspended in homogenization buffer (without DNAse I) and rehomogenized as described above. The homogenate is centrifuged at 1800×g for 15 minutes. The second supernatant is combined with the first supernatant and centrifuged an additional time at 1800×g for 15 minutes. The overall supernatant is then centrifuged at 25000×g for 30 minutes at 4° C. The resulting membrane pellet is resuspended in homogenization buffer (without DNAse I) containing protease inhibitors at approximately 1 to 3 mg/mL and stored as aliquots in a−80° C. freezer until use.
# The binding buffer contains 25 mM HEPES, pH 7.4, 2.5 mM CaCl2, 1 mM MgCl2, 0.1% (w/v) bacitracin, 0.003% (w/v) TWEEN©-20, and Roche Complete™ Protease Inhibitors without EDTA. Peptides and GIP are thawed and 3 fold serially diluted in 100% DMSO (10 point concentration response curves). […] Plates are sealed and mixed on a plate shaker (setting 6) for 1 minute and read with a PerkinElmer Trilux MicroBeta© scintillation counter after 2.5 to 12 hours of incubation/settling time at room temperature.
# (§4) Data are analyzed using four-parameter (curve maximum, curve minimum, IC50, Hill slope) nonlinear regression routines (Genedata Screener, version 12.0.4, Genedata AG, Basal, Switzerland). […] Values for Ki are reported as the geometric mean, with error expressed as the standard error of the mean (SEM) and n is equal to the number of independent replicates (determined in assays performed on different days). […] The Ki Ratio is a rapid indication of the apparent affinity of a peptide compared to the native control peptide. […] SEM is only calculated when n=2 or greater non-qualified results exist. Means are expressed as GeoMetric means with the standard error of the mean (SEM) and the number of replicates (n) indicated in parenthesis.
# human GLP-1R = human GLP-1R (Homo sapiens, UniProt P43220); experiment: [125I]-GLP-1 binding (SPA), human GLP-1 receptor; parameters: expressed in transfected cells; crude membranes; conditions: read-out: hGLP1R Ki, (nM) (SEM, n)
# Experimental: as §1, §2, §3
# The binding buffer contains 25 mM HEPES, pH 7.4, 2.5 mM CaCl2, 1 mM MgCl2, 0.1% (w/v) bacitracin, 0.003% (w/v) TWEEN©-20, and Roche Complete™ Protease Inhibitors without EDTA.
# as §4
# human Gcg receptor = target: T3, human Gcg receptor (Homo sapiens, UniProt P47871); experiment: [125I]-Glucagon binding (SPA), human Gcg receptor; conditions: read-out: hGLcgR Ki, nM (SEM, n)
# T3 construct: expressed in transfected cells; crude membranes
# Experimental: as §1, §2, §3
# The human Gcg receptor binding assays are performed using a Scintillation Proximity Assay (SPA) format with wheat germ agglutinin (WGA) beads (Perkin Elmer). The binding buffer contains 25 mM 4-(2-hydroxyethyl)-1-piperazineethanesulfonic acid (HEPES), pH 7.4, 2.5 mM CaCl2, 1 mM MgCl2, 0.1% (w/v) bacitracin (Research Products), 0.003% (w/v) Polyoxyethylenesorbitan monolaurate (TWEEN©-20), and Roche Complete™ Protease Inhibitors without EDTA. […] Plates are sealed and mixed on a plate shaker (setting 6) for 1 minute and read with a PerkinElmer Trilux MicroBeta© scintillation counter after 12 hours of incubation/settling time at room temperature.
# as §4
# T3 sequence (P47871 26-477): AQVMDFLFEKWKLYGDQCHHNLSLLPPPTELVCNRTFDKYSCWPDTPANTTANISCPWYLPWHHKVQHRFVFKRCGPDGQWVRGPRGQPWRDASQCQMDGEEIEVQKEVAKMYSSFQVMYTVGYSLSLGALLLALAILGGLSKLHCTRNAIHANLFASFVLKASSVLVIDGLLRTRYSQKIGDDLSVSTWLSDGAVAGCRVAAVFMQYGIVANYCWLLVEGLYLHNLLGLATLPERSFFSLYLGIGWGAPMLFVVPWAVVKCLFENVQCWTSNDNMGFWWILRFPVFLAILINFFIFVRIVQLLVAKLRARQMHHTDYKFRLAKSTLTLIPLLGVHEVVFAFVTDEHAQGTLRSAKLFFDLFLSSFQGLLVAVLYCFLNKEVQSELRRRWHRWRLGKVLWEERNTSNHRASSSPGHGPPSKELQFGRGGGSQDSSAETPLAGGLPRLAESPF
# human GLP-1 receptor (GLP-1R), sequence (P43220 24-463): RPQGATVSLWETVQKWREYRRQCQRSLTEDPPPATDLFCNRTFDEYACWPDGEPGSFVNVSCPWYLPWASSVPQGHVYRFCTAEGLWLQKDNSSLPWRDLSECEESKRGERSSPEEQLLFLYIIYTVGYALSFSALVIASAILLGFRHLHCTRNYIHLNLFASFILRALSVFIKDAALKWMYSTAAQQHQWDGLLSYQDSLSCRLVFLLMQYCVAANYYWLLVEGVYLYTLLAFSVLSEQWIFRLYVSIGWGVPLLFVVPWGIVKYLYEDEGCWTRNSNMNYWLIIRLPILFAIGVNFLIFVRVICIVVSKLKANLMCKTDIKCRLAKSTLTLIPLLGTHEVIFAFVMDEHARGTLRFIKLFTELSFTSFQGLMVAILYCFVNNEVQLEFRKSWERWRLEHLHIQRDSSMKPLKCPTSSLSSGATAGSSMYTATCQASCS
# human GLP-1R, sequence (P43220 24-463): as above
SMILES,EC50 [1],EC50 [2],Ki (human GIP receptor),Ki (human GLP-1R),Ki (human Gcg receptor)
CC[C@H](C)[C@H](NC(=O)[C@H](Cc1ccccc1)NC(=O)[C@H](C)NC(=O)C(C)(C)NC(=O)[C@H](CCC(N)=O)NC(=O)[C@H](C)NC(=O)[C@H](CCCCNC(=O)COCCOCCNC(=O)COCCOCCNC(=O)CC[C@H](NC(=O)CCCCCCCCCCCCCCCCCCC(=O)O)C(=O)O)NC(=O)[C@H](CCCCN)NC(=O)[C@H](CC(=O)O)NC(=O)[C@H](CC(C)C)NC(=O)[C@H](CC(C)C)NC(=O)[C@@H](NC(=O)[C@H](CO)NC(=O)[C@H](Cc1ccc(O)cc1)NC(=O)[C@H](CC(=O)O)NC(=O)[C@H](CO)NC(=O)[C@@H](NC(=O)[C@H](Cc1ccccc1)NC(=O)[C@@H](NC(=O)CNC(=O)[C@H](CCC(=O)O)NC(=O)C(C)(C)NC(=O)[C@@H](N)Cc1ccc(O)cc1)[C@@H](C)O)[C@@H](C)O)[C@@H](C)CC)C(=O)N[C@@H](CCC(=O)O)C(=O)N[C@@H](Cc1ccc(O)cc1)C(=O)N[C@@H](CC(C)C)C(=O)N[C@@H](CC(C)C)C(=O)N[C@@H](CCC(=O)O)C(=O)NCC(=O)NCC(=O)N1CCC[C@H]1C(=O)N[C@@H](CO)C(=O)N[C@@H](CO)C(=O)NCC(=O)N[C@@H](C)C(=O)N1CCC[C@H]1C(=O)N1CCC[C@H]1C(=O)N1CCC[C@H]1C(=O)N[C@@H](CO)C(N)=O [Example 6] (H-Y[Aib]EGTFTSDYSILLDKK([AEEA-AEEA-γGlu-C20 diacid])AQ[Aib]AFIEYLLEGGPSSGAPPPS-NH2),0.374 nM,0.0899 nM,0.0835 nM,6.71 nM,55.8 nM
CC[C@H](C)[C@H](NC(=O)[C@H](Cc1ccccc1)NC(=O)[C@H](C)NC(=O)C(C)(C)NC(=O)[C@H](CCC(N)=O)NC(=O)[C@H](C)NC(=O)[C@H](CCCCNC(=O)COCCOCCNC(=O)COCCOCCNC(=O)CC[C@H](NC(=O)CCCCCCCCCCCCCCCCCCC(=O)O)C(=O)O)NC(=O)[C@H](CO)NC(=O)[C@H](CC(=O)O)NC(=O)[C@H](CC(C)C)NC(=O)[C@H](CC(C)C)NC(=O)[C@@H](NC(=O)[C@H](CO)NC(=O)[C@H](Cc1ccc(O)cc1)NC(=O)[C@H](CC(=O)O)NC(=O)[C@H](CO)NC(=O)[C@@H](NC(=O)[C@H](Cc1ccccc1)NC(=O)[C@@H](NC(=O)CNC(=O)[C@H](CCC(=O)O)NC(=O)C(C)(C)NC(=O)[C@@H](N)Cc1ccc(O)cc1)[C@@H](C)O)[C@@H](C)O)[C@@H](C)CC)C(=O)N[C@@H](CCC(=O)O)C(=O)N[C@@H](Cc1ccc(O)cc1)C(=O)N[C@@H](CC(C)C)C(=O)N[C@@H](CC(C)C)C(=O)N[C@@H](CCC(=O)O)C(=O)NCC(=O)NCC(=O)N1CCC[C@H]1C(=O)N[C@@H](CO)C(=O)N[C@@H](CO)C(=O)NCC(=O)N[C@@H](C)C(=O)N1CCC[C@H]1C(=O)N1CCC[C@H]1C(=O)N1CCC[C@H]1C(=O)N[C@@H](CO)C(N)=O [Example 7] (H-Y[Aib]EGTFTSDYSILLDSK([AEEA-AEEA-γGlu-C20 diacid])AQ[Aib]AFIEYLLEGGPSSGAPPPS-NH2),0.47 nM,0.461 nM,0.252 nM,43.3 nM,198 nM
CC[C@H](C)[C@H](NC(=O)[C@H](CC(C)C)NC(=O)[C@H](Cc1ccc(O)cc1)NC(=O)[C@H](CCC(=O)O)NC(=O)[C@@H](NC(=O)[C@H](Cc1ccccc1)NC(=O)[C@H](C)NC(=O)C(C)(C)NC(=O)[C@H](CCC(N)=O)NC(=O)[C@H](C)NC(=O)[C@H](CCCCNC(=O)COCCOCCNC(=O)COCCOCCNC(=O)CC[C@H](NC(=O)CCCCCCCCCCCCCCCCCCC(=O)O)C(=O)O)NC(=O)[C@H](CCCCN)NC(=O)[C@H](CC(=O)O)NC(=O)[C@H](CC(C)C)NC(=O)[C@H](CC(C)C)NC(=O)[C@@H](NC(=O)[C@H](CO)NC(=O)[C@H](Cc1ccc(O)cc1)NC(=O)[C@H](CC(=O)O)NC(=O)[C@H](CO)NC(=O)[C@@H](NC(=O)[C@H](Cc1ccccc1)NC(=O)[C@@H](NC(=O)CNC(=O)[C@H](CCC(=O)O)NC(=O)C(C)(C)NC(=O)[C@@H](N)Cc1ccc(O)cc1)[C@@H](C)O)[C@@H](C)O)[C@@H](C)CC)[C@@H](C)CC)C(=O)N[C@@H](CCC(=O)O)C(=O)NCC(=O)NCC(=O)N1CCC[C@H]1C(=O)N[C@@H](CO)C(=O)N[C@@H](CO)C(=O)NCC(=O)N[C@@H](C)C(=O)N1CCC[C@H]1C(=O)N1CCC[C@H]1C(=O)N1CCC[C@H]1C(=O)N[C@@H](CO)C(N)=O [Example 8],0.148 nM,0.0848 nM,0.0772 nM,2.84 nM,206 nM
CC[C@H](C)[C@H](NC(=O)[C@H](CC(C)C)NC(=O)[C@H](Cc1ccc(O)cc1)NC(=O)[C@H](CCC(=O)O)NC(=O)[C@@H](NC(=O)[C@H](Cc1ccccc1)NC(=O)[C@H](C)NC(=O)C(C)(C)NC(=O)[C@H](CCC(N)=O)NC(=O)[C@H](C)NC(=O)[C@H](CCCCNC(=O)COCCOCCNC(=O)COCCOCCNC(=O)CC[C@H](NC(=O)CCCCCCCCCCCCCCCCCCC(=O)O)C(=O)O)NC(=O)[C@H](CO)NC(=O)[C@H](CC(=O)O)NC(=O)[C@H](CC(C)C)NC(=O)[C@H](CC(C)C)NC(=O)[C@@H](NC(=O)[C@H](CO)NC(=O)[C@H](Cc1ccc(O)cc1)NC(=O)[C@H](CC(=O)O)NC(=O)[C@H](CO)NC(=O)[C@@H](NC(=O)[C@H](Cc1ccccc1)NC(=O)[C@@H](NC(=O)CNC(=O)[C@H](CCC(=O)O)NC(=O)C(C)(C)NC(=O)[C@@H](N)Cc1ccc(O)cc1)[C@@H](C)O)[C@@H](C)O)[C@@H](C)CC)[C@@H](C)CC)C(=O)N[C@@H](CCC(=O)O)C(=O)NCC(=O)NCC(=O)N1CCC[C@H]1C(=O)N[C@@H](CO)C(=O)N[C@@H](CO)C(=O)NCC(=O)N[C@@H](C)C(=O)N1CCC[C@H]1C(=O)N1CCC[C@H]1C(=O)N1CCC[C@H]1C(=O)N[C@@H](CO)C(N)=O [Example 9] (H-Y[Aib]EGTFTSDYSILLDSK([AEEA-AEEA-γGlu-C20 diacid])AQ[Aib]AFIEYLIEGGPSSGAPPPS-NH2),0.194 nM,0.21 nM,0.127 nM,14.9 nM,375 nM
